The values below come from US9670194B2 (Calitor Sciences, LLC, priority 2013, dated 2017).

Data set [1] is described as follows: Compound stability in human liver microsomes. The format is in vitro ADME. The settings on record: for half-life at 5 μM: human liver microsomes 0.5 mg protein/mL, compound 5 μM, NADPH 1.0 mM, 37° C.; for CLint scaled at 5 μM: human liver microsomes, in vivo CLint extrapolated.
The nature of data set [2]: Pharmacokinetics after intravenous and oral administration in rats. The class given is in vivo, rat. The settings on record: for clearance (CL) / AUC(0-t) / half-life / Vd: iv dosing, dose 1 mg/kg; for bioavailability / AUC(0-t) / half-life / Vd: rat, plasma; for bioavailability: iv dose 1 mg/kg, oral dose generally 5 or 10 mg/kg; for Vd: read-out: Vss.
In a further data set the target is PI3K (p110δ/p85α) (h) (Homo sapiens (Human), UniProt O00329). Kind of data set: PI3K (p110δ/p85α) (h) non-radioactive HTRF kinase assay. The format is biochemical. Background: Time-resolved FRET reads energy transfer from a long-lived donor to a nearby acceptor.
Chain of PI3K (p110δ/p85α) (h) (O00329 whole entry): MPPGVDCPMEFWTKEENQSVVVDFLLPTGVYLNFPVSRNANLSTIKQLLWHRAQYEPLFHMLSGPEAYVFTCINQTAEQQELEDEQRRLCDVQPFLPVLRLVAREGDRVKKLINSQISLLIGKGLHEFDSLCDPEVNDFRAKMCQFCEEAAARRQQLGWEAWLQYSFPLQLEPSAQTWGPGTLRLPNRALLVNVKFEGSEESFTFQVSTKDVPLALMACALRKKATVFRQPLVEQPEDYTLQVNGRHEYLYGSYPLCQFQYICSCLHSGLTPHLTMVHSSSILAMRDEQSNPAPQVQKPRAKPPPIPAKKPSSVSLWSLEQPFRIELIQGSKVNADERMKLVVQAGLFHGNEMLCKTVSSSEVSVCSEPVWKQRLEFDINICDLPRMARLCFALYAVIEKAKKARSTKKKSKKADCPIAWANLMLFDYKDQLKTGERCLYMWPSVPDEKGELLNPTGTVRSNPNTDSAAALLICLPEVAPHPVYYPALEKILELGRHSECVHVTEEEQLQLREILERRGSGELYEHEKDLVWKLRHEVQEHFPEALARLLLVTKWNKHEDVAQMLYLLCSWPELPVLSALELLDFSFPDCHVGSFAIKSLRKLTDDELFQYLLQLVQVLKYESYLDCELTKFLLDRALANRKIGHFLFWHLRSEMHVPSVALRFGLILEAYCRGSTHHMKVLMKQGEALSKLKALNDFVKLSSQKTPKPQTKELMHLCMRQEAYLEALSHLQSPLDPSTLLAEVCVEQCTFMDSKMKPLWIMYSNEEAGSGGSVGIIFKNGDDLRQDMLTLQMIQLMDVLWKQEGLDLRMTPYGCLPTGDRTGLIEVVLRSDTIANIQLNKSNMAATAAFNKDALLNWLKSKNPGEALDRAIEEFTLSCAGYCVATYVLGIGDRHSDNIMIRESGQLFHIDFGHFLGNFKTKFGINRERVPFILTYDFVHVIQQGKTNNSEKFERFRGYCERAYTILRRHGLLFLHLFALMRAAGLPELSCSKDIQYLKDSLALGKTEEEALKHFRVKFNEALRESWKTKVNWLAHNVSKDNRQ
Chain of PI3K (p110δ/p85α) (h) (P27986 whole entry partner): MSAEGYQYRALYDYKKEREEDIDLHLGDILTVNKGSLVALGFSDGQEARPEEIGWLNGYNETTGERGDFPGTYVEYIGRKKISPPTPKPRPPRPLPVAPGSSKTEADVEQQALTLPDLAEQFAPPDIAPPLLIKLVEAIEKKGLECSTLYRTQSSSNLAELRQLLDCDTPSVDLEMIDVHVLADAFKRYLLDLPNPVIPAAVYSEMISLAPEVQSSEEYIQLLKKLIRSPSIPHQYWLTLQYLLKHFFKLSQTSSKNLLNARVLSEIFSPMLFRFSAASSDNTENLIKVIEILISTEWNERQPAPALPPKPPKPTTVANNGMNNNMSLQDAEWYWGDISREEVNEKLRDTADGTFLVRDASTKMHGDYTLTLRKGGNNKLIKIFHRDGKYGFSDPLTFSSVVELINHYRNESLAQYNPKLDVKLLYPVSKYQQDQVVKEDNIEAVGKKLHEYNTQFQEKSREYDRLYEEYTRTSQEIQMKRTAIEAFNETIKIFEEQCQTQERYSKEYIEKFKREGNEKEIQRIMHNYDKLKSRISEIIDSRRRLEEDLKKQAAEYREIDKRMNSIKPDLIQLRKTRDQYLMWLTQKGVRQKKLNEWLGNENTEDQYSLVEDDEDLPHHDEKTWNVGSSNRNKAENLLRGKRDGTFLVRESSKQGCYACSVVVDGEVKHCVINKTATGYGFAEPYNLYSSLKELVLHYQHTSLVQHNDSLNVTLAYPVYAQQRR
The nature of data set [3]: Compound stability in rat liver microsomes. The format is in vitro ADME. The settings on record: pH 7.4; for half-life at 5 μM: rat liver microsomes 0.5 mg protein/mL, compound 5 μM, NADPH 1.0 mM, 37° C.; for CLint scaled at 5 μM: rat liver microsomes, in vivo CLint extrapolated.

By half-life is commonly meant the time needed for the level to fall by half in the phase considered. As a reminder, the CLint scaled is the rate of metabolic loss divided by the concentration. A word on the AUC(0-t): it is the area under the concentration-time curve up to a stated or last time point. By IC50 is commonly meant the concentration that inhibits the measured activity by half. `CC[C@H](Nc1ncnc(N)c1-c1ccn(C)n1)c1nc2cccc(Cl)c2c(=O)n1C1CC1` [Ex. 51, (S)-2-(1-((6-amino-5-(1-methyl-1H-pyrazol-3-yl)pyrimidin-4-yl)amino)propyl)-5-chloro-3-cyclopropylquinazolin-4(3H)-one]: in data set [1], the half-life at 5 μM turned out to be 22.6 min and the CLint scaled at 5 μM was 76.9 mL/min/kg. Further, in data set [2], the “clearance (CL)” value amounted to 27.3 mL/min/kg, the bioavailability is 59.8%, the AUC(0-t) stood at 609 ng·h/mL and the half-life is 115 min. Moreover, the Vd in data set [2] stood at 1.64 L/kg. For the same molecule, the IC50 on PI3K (p110δ/p85α) (h) worked out at 135 nM. Also, in data set [3], the half-life at 5 μM was found to be 18.2 min and the CLint scaled at 5 μM is 136 mL/min/kg.
For the molecule `CC[C@H](Nc1ncnc(N)c1-c1ncn(C)n1)c1nc2cccc(Cl)c2c(=O)n1-c1ccccc1` [Ex. 32, (S)-2-(1-((6-amino-5-(1-methyl-1H-1,2,4-triazol-3-yl)pyrimidin-4-yl)amino)-propyl)-5-chloro-3-phenylquinazolin-4(3H)-one], in data set [1], the half-life at 5 μM was determined as 17.4 min and the CLint scaled at 5 μM was 100 mL/min/kg. In data set [2], the “clearance (CL)” value is 43.3 mL/min/kg, the bioavailability stood at 61%, the area under the curve AUC(0-t) worked out at 390 ng·h/mL and the half-life was 37.8 min. The Vd in data set [2] turned out to be 1.51 L/kg. For the same molecule, at PI3K (p110δ/p85α) (h), the IC50 is 70 nM. Also, in data set [3], the half-life at 5 μM is 20 min and the CLint scaled at 5 μM was 124 mL/min/kg.
In the case of `CC[C@H](Nc1ncnc(N)c1-c1ncn(C)n1)c1nc2cccc(Cl)c2c(=O)n1C1CC1` [Ex. 53, (S)-2-(1-((6-amino-5-(1-methyl-1H-1,2,4-triazol-3-yl)pyrimidin-4-yl)amino)-propyl)-5-chloro-3-cyclopropylquinazolin-4(3H)-one], in data set [1], the half-life at 5 μM was found to be 28 min and the CLint scaled at 5 μM was 62.1 mL/min/kg. Further, in data set [2], the “clearance (CL)” value worked out at 38.2 mL/min/kg, the bioavailability turned out to be 97.3%, the AUC(0-t) turned out to be 429 ng·h/mL and the half-life is 97.2 min. For the same molecule, in data set [2], the Vd was 3.88 L/kg. Further, the IC50 on PI3K (p110δ/p85α) (h) amounted to 239 nM. Also, in data set [3], the half-life at 5 μM amounted to 34.1 min and the CLint scaled at 5 μM is 72.9 mL/min/kg.
Consider `Cc1nc(-c2c(N)ncnc2N[C@@H](C)c2nc3cccc(Cl)c3c(=O)n2C2CC2)no1` [Ex. 33, (S)-2-(1-((6-amino-5-(5-methyl-1,2,4-oxadiazol-3-yl)pyrimidin-4-yl)amino)-ethyl)-5-chloro-3-cyclopropylquinazolin-4(3H)-one], for which, in data set [1], the half-life at 5 μM was 11.9 min and the CLint scaled at 5 μM was 146 mL/min/kg. Further, in data set [2], the “clearance (CL)” value is 65.5 mL/min/kg, the bioavailability worked out at 5.59%, the exposure AUC(0-t) was determined as 241 ng·h/mL and the half-life is 432 min. Moreover, in data set [2], the Vd was 14.3 L/kg. Also, the IC50 at PI3K (p110δ/p85α) (h) was 67 nM. In addition, in data set [3], the half-life at 5 μM was determined as 8.68 min and the CLint scaled at 5 μM is 286 mL/min/kg.
Take `CC[C@H](Nc1ncnc(N)c1-c1nc(C)no1)c1nc2cccc(C)c2c(=O)n1-c1ccccc1C` [Ex. 27, (S)-2-(1-((6-amino-5-(3-methyl-1,2,4-oxadiazol-5-yl)pyrimidin-4-yl)amino)-propyl)-5-methyl-3-(o-tolyl)quinazolin-4(3H)-one]: in data set [1], the half-life at 5 μM turned out to be 14.9 min and the CLint scaled at 5 μM was 167 mL/min/kg. In data set [2], the “clearance (CL)” value was 61.7 mL/min/kg, the bioavailability turned out to be 49.8%, the AUC(0-t) worked out at 263 ng·h/mL and the half-life was 111 min. In addition, in data set [2], the Vd was 6.11 L/kg. Also, the IC50 on PI3K (p110δ/p85α) (h) worked out at 13 nM. In addition, in data set [3], the half-life at 5 μM stood at 16.3 min and the CLint scaled at 5 μM is 152 mL/min/kg.
As for `CC[C@H](Nc1ncnc(N)c1-c1nnc(C)o1)c1nc2cccc(C)c2c(=O)n1-c1ccccc1C` [Ex. 31, (S)-2-(1-((6-amino-5-(5-methyl-1,3,4-oxadiazol-2-yl)pyrimidin-4-yl)amino)propyl)-5-methyl-3-(o-tolyl)quinazolin-4(3H)-one], in data set [1], the half-life at 5 μM is 7.56 min and the CLint scaled at 5 μM is 328 mL/min/kg. Further, in data set [2], the “clearance (CL)” value was found to be 64.8 mL/min/kg, the bioavailability was found to be 16.2%, the AUC(0-t) turned out to be 260 ng·h/mL and the half-life is 42 min. For the same molecule, the Vd in data set [2] turned out to be 3.42 L/kg. In addition, at PI3K (p110δ/p85α) (h), the IC50 amounted to 18 nM. In data set [3], the half-life at 5 μM amounted to 7.27 min and the CLint scaled at 5 μM was 342 mL/min/kg.
Regarding `CC[C@H](Nc1ncnc(N)c1-c1nc(C)no1)c1nc2cccc(Cl)c2c(=O)n1[C@@H]1C[C@@H]1F` [Ex. 62, 2-((S)-1-((6-amino-5-(3-methyl-1,2,4-oxadiazol-5-yl)pyrimidin-4-yl)amino)propyl)-5-chloro-3-((1R,2S)-2-fluorocyclopropyl)quinazolin-4(3H)-one], in data set [1], the half-life at 5 μM worked out at 50.4 min and the CLint scaled at 5 μM was 34.5 mL/min/kg. Also, in data set [2], the “clearance (CL)” value stood at 71.8 mL/min/kg, the bioavailability was 27.7%, the AUC(0-t) was determined as 238 ng·h/mL and the half-life was 81 min. In addition, the Vd in data set [2] is 6.11 L/kg. The half-maximal inhibitory concentration (IC50) on PI3K (p110δ/p85α) (h) amounted to 37 nM. Further, in data set [3], the half-life at 5 μM was found to be 46.2 min and the CLint scaled at 5 μM was 53.7 mL/min/kg.
Regarding `CC[C@H](Nc1ncnc(N)c1-c1nnc(C)o1)c1nc2cccc(F)c2c(=O)n1-c1ccccc1` [Ex. 40, (S)-2-(1-((6-amino-5-(5-methyl-1,3,4-oxadiazol-2-yl)pyrimidin-4-yl)amino)-propyl)-5-fluoro-3-phenylquinazolin-4(3H)-one], in data set [1], the half-life at 5 μM came out at 28 min and the CLint scaled at 5 μM was 62.1 mL/min/kg. Further, in data set [2], the “clearance (CL)” value worked out at 57.3 mL/min/kg, the bioavailability worked out at 112%, the AUC(0-t) was 292 ng·h/mL and the half-life is 40.2 min. For the same molecule, the Vd in data set [2] is 2.99 L/kg. Besides, at PI3K (p110δ/p85α) (h), the IC50 came out at 93 nM. Besides, in data set [3], the half-life at 5 μM stood at 12.6 min and the CLint scaled at 5 μM was 198 mL/min/kg.
Consider `CC[C@H](Nc1ncnc(N)c1-c1nnc(C)o1)c1nc2cccc(C)c2c(=O)n1-c1ccccc1` [Ex. 38, (S)-2-(1-((6-amino-5-(5-methyl-1,3,4-oxadiazol-2-yl)pyrimidin-4-yl)amino)-propyl)-5-methyl-3-phenylquinazolin-4(3H)-one], for which, in data set [1], the half-life at 5 μM was 16 min and the CLint scaled at 5 μM was 109 mL/min/kg. Besides, in data set [2], the “clearance (CL)” value was 71.3 mL/min/kg, the bioavailability worked out at 36.6%, the AUC(0-t) stood at 236 ng·h/mL and the half-life was 39.3 min. Also, in data set [2], the Vd is 3.05 L/kg. The IC50 on PI3K (p110δ/p85α) (h) is 12 nM. Further, in data set [3], the half-life at 5 μM amounted to 8.57 min and the CLint scaled at 5 μM is 290 mL/min/kg.
In the case of `CC[C@H](Nc1ncnc(N)c1-c1nc(C)no1)c1nc2cccc(C)c2c(=O)n1-c1ccccc1` [Ex. 37, (S)-2-(1-((6-amino-5-(3-methyl-1,2,4-oxadiazol-5-yl)pyrimidin-4-yl)amino)-propyl)-5-methyl-3-phenylquinazolin-4(3H)-one], in data set [1], the half-life at 5 μM is 5.3 min and the CLint scaled at 5 μM is 328 mL/min/kg. Besides, in data set [2], the “clearance (CL)” value came out at 67.5 mL/min/kg, the bioavailability is 24.6%, the AUC(0-t) turned out to be 246 ng·h/mL and the half-life was 80.4 min. Also, the Vd in data set [2] turned out to be 4.9 L/kg. Also, the IC50 at PI3K (p110δ/p85α) (h) amounted to 6 nM. In data set [3], the half-life at 5 μM was determined as 7.2 min and the CLint scaled at 5 μM was 345 mL/min/kg.
On to `C[C@H](Nc1ncnc(N)c1-c1ncn(C)n1)c1nc2cccc(Cl)c2c(=O)n1C1CC1` [Ex. 44, (S)-2-(1-((6-amino-5-(1-methyl-1H-1,2,4-triazol-3-yl)pyrimidin-4-yl)amino)-ethyl)-5-chloro-3-cyclopropylquinazolin-4(3H)-one], for which, in data set [1], the half-life at 5 μM was 13.6 min and the CLint scaled at 5 μM was 128 mL/min/kg. For the same molecule, in data set [2], the “clearance (CL)” value came out at 73.7 mL/min/kg, the bioavailability was 14%, the AUC(0-t) was 231 ng·h/mL and the half-life was 34.2 min. Besides, the Vd in data set [2] turned out to be 2.51 L/kg. Moreover, the IC50 on PI3K (p110δ/p85α) (h) came to 358 nM. Further, in data set [3], the half-life at 5 μM is 13 min and the CLint scaled at 5 μM is 191 mL/min/kg.
For the molecule `CC[C@H](Nc1ncnc(N)c1-c1nc(C)no1)c1nc2ccccc2c(=O)n1-c1ccccc1F` [Ex. 22, (S)-2-(1-((6-amino-5-(3-methyl-1,2,4-oxadiazol-5-yl)pyrimidin-4-yl)amino)propyl)-3-(2-fluorophenyl)quinazolin-4(3H)-one], in data set [1], the half-life at 5 μM amounted to 15.3 min and the CLint scaled at 5 μM was 163 mL/min/kg. Further, in data set [2], the “clearance (CL)” value is 159 mL/min/kg, the bioavailability was determined as 29.8%, the AUC(0-t) is 104 ng·h/mL and the half-life is 51 min. The Vd in data set [2] was 9.46 L/kg. For the same molecule, on PI3K (p110δ/p85α) (h), the IC50 stood at 26 nM. Besides, in data set [3], the half-life at 5 μM is 7.95 min and the CLint scaled at 5 μM is 312 mL/min/kg.
For `CC[C@H](Nc1ncnc(N)c1-c1nnc(C)o1)c1nc2cccc(F)c2c(=O)n1C1CC1` [Ex. 25, (S)-2-(1-((6-amino-5-(5-methyl-1,3,4-oxadiazol-2-yl)pyrimidin-4-yl)amino)-propyl)-3-cyclopropyl-5-fluoroquinazolin-4(3H)-one], in data set [1], the half-life at 5 μM stood at 150 min and the CLint scaled at 5 μM is 16.6 mL/min/kg. Moreover, in data set [2], the “clearance (CL)” value amounted to 75.7 mL/min/kg, the bioavailability was 62.3%, the AUC(0-t) was found to be 223 ng·h/mL and the half-life is 48.6 min. The Vd in data set [2] came out at 3.77 L/kg. Moreover, the IC50 at PI3K (p110δ/p85α) (h) was 298 nM. In addition, in data set [3], the half-life at 5 μM was 49.9 min and the CLint scaled at 5 μM was 49.8 mL/min/kg.
